Where two headings read alike, the source gives them in different places.
Legend:
GPR55 = GPR55 (Homo sapiens, UniProt Q9Y2T6); experiment: Repeat of proposed literature pairing (mass redistribution and/or internalization); format: cell-based; design: hIL-2Ra signal peptide (N); expressed in transfected cells; conditions: target GPR55
Description: (§1) DMR assays provide a single integrated readout of ligand-dependent cellular response, utilizing an optical biosensor in specialized microplates to detect wavelength shifts of reflected light as it passes through the biosensor and the lower portion of the cell (∼150-200 nm). As a signal pathway agnostic approach, DMR assays are well-suited to the study of GPCRs ([Fang et al., 2008], [Schröder et al., 2011]). The mass redistribution response (Δ picometer (pm)) likely reflects a number of intracellular events, including cytoskeletal rearrangement, protein trafficking and receptor internalization. […] After 3-5 min baseline recordings, peptides (10 μM) were added in duplicate wells using an electronic 384-channel Viaflo pipette (Integra Biosciences, Switzerland) and DMR responses were measured for 60 min at 22°C. […] Real-time data were processed using the BT to column converter MS-Excel macro (Corning) and analyzed in GraphPad Prism 7.0. DMR recordings in peptide screening experiments were buffer and solvent corrected and the area under the curve (AUC) was quantified. […]
(§2) A TR-FRET real-time internalization assay was used to examine peptide-dependent changes in orphan receptor localization as described previously ([Foster and Bräuner-Osborne, 2018]). […] For peptide screening analysis (both DMR and internalization assays), we calculated the area under the curve from the real-time traces. […]

GPR3 = conditions: target GPR3
BRS3 = experiment: Repeat of proposed literature pairing (mass redistribution and/or internalization); format: cell-based, human; conditions: target BRS3
GPR68 = experiment: as above; format: cell-based, human; conditions: target GPR68
NPY4R = experiment: β-arrestin recruitment (Tango), known peptide receptors; format: cell-based, human; conditions: endogenous ligand(s) included in peptide library
Description: Supplement mmc6.xlsx, sheet "Peptide GPCR controls" | column: Confirmed?

PRRP = experiment: as above; format: cell-based, human
Description: Supplement mmc6.xlsx, sheet "Peptide GPCR controls" | column: Confirmed?; Notes

human GPCRs = target: human GPCRs; design: method as in Guide to Pharmacology database; conditions: max reported value, ref Guide to Pharmacology database, cited from earlier work
Description: Supplement mmc1.xlsx, sheet "HumanGPCRLigands" | column: pKi_value; pKd_value; pEC50_value; pIC50_value

NPSR = target: T1, NPSR (Homo sapiens, UniProt Q6W5P4); experiment: β-arrestin recruitment (Tango), known peptide receptors; format: cell-based; conditions: mean, n = 3
T1 construct: host or cells: HTLA cells (HEK293-derived)
Description: (§3) Supplement mmc7.xlsx, sheet "Peptide validation data" | column: Emax; pEC50

OPRD1 = target: T2, OPRD1 (Homo sapiens, UniProt P41143); experiment: as above; format: cell-based; conditions: mean, n = 3
T2 construct: host or cells: HTLA cells (HEK293-derived)
Description: as §3

GPR1 = target: T3, GPR1 (Homo sapiens, UniProt P46091); experiment: Repeat of proposed literature pairing (mass redistribution and/or internalization); format: cell-based; design: host or cells: HTLA cells (HEK293-derived)
T3 sequence (P46091 1-355): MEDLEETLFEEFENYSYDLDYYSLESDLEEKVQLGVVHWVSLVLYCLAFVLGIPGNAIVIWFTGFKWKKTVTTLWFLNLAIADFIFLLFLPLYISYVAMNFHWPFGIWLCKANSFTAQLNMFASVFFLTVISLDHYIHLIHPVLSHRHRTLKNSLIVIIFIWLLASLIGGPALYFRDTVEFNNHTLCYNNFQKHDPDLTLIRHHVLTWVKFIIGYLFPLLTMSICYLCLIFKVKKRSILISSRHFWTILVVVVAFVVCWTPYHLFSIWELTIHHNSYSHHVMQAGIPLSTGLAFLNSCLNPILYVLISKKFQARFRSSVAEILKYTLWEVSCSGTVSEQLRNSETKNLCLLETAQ
Description: as §1, §2

MRGPRX2 = target: T4, MRGPRX2 (Homo sapiens, UniProt Q96LB1); experiment: as above; format: cell-based; conditions: repeat of literature pairing across multiple assays; cleavage variants CST-14 and SRIF-28 tested; Figure S7A
T4 construct: host or cells: HTLA cells (HEK293-derived)
T4 sequence (Q96LB1 1-330): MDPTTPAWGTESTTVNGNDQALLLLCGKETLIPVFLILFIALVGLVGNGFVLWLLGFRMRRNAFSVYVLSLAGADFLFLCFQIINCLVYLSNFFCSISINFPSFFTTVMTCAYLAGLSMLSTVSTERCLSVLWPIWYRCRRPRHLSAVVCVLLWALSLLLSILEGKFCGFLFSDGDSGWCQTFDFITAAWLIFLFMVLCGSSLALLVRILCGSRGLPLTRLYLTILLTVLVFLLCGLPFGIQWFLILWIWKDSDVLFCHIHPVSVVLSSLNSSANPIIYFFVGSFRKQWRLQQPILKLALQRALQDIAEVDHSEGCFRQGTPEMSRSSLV
Description: as §1, §2

[1] = reported ligand tested on receptor-expressing cell line
[2] = receptor CMKLR1 (cml1_human, Q99788)

T1 sequence (Q6W5P4 whole entry): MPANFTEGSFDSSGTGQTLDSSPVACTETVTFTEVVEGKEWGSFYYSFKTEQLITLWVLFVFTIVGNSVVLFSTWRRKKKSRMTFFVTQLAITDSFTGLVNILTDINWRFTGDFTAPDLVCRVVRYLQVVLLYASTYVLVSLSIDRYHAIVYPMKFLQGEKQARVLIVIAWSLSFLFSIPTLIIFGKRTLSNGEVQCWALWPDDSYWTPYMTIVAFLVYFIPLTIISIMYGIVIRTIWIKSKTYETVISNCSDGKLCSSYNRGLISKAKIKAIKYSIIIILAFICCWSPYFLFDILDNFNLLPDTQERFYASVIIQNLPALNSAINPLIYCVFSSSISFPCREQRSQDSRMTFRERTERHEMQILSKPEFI
GPR55, sequence (Q9Y2T6 2-319 limits assumed): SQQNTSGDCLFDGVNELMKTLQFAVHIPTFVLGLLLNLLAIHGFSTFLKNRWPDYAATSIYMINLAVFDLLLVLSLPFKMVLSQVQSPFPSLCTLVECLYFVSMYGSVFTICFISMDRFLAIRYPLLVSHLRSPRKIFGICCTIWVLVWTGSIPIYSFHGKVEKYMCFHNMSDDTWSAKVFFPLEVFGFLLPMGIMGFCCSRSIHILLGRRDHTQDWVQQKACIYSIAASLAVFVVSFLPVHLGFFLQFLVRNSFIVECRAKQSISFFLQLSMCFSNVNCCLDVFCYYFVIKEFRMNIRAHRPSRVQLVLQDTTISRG
T2 sequence (P41143 whole entry): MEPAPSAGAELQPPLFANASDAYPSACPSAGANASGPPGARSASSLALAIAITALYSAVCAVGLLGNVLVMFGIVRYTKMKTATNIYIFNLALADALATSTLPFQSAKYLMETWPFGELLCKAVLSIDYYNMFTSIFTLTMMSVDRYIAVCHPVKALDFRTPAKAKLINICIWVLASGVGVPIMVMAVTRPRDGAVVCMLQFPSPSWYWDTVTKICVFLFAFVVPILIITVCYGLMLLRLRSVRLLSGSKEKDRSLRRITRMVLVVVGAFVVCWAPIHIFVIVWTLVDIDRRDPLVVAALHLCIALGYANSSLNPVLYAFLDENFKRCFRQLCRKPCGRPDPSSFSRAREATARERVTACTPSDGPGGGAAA

Cc1c(C(=O)NN2CCCCC2)nn(-c2ccc(Cl)cc2Cl)c1-c1ccc(I)cc1 [AM251]
Comment (response in DMR / internalization assays) (GPR55): Robust response | Active in DMR/internalization (GPR55; [1]): Yes

[Cl-].c1ccc2c(c1)[I+]c1ccccc1-2 [Diphenyleneiodonium chloride (DPI)]
Comment (response in DMR / internalization assays) (GPR3): Robust response in DMR, no response in internalization assay | Active in DMR/internalization (GPR3; [1]): Yes (DMR)

O[C@@](Cc1ncc(CC2(C(F)(F)F)CC2)[nH]1)(c1ccc(-n2cccn2)cc1)C(F)(F)F [MK-5046]
Comment (response in DMR / internalization assays) (BRS3): Robust response | Active in DMR/internalization (BRS3; [1]): Yes

Nc1nc(NCc2ccccc2)nc(-c2ccccc2CO)n1 [ZINC67740571 (ogerin)]
Comment (response in DMR / internalization assays) (GPR68): Robust response in DMR, no response in internalization assay | Active in DMR/internalization (GPR68; [1]): Yes (DMR)

Pancreatic hormone (PH)
Confirmed? (confirmation of b-arrestin recruitment) (NPY4R): No

Peptide YY (PYY)
Confirmed? (confirmation of b-arrestin recruitment) (NPY4R): No

PrRP-31
Confirmed? (confirmation of b-arrestin recruitment) (PRRP; endogenous ligand(s) included in peptide library, Tango): Yes | Notes (b-arrestin recruitment response) (PRRP; screen and validation): No response in screen, small response in validation | pKi_value (human GPCRs; receptor PRLHR (prlhr_human, P49683)): 9.2

SFRNGVGSGVKKTSF [Peptide 107]
Emax, Tango (fold over basal) (NPSR): 2.2 fold over basal | pEC50, Tango (fold over basal) (NPSR): 6.03

VLDQLSA [Peptide 25]
Emax, Tango (fold over basal) (OPRD1): 5.0 fold over basal | pEC50, Tango (fold over basal) (OPRD1): 5.58

chemerin [reference compound]
pEC50_value (human GPCRs; [2]): 8.5 | pKd_value (human GPCRs; [2]): 8.3 | Peptide pairing for orphan receptor GPR1 (confirmed/unconfirmed) (GPR1; repeat of literature pairing): Confirmed peptide pairings for orphans | receptor-dependent activation by proposed ligand, GPR1 (GPR1; repeat of literature pairing across multiple assays, Figure S7A, Tables S5 and S7): selective receptor-dependent activation

cortistatin
receptor-dependent activation by proposed ligand, MRGPRX2 (MRGPRX2): selective receptor-dependent activation

somatostatin [reference compound]
receptor-dependent activation by proposed ligand, MRGPRX2 (MRGPRX2): selective receptor-dependent activation | pKi_value (human GPCRs; receptor SSTR1 (ssr1_human, P30872)): 9.4 | pKi_value (human GPCRs; receptor SSTR2 (ssr2_human, P30874)): 10.2 | pKi_value (human GPCRs; receptor SSTR3 (ssr3_human, P32745)): 9.9 | pKi_value (human GPCRs; receptor SSTR4 (ssr4_human, P31391)): 9.2 | pKi_value (human GPCRs; receptor SSTR5 (ssr5_human, P35346)): 10.3
